Assay results: patent publication US20170258943A1, “Using Heavy Water as a Contrast Agent for Hydrogen Magnetic Resonance Imaging” (National Tsing Hua University, priority 2014, published 2017)

Key:
[1] = T1 and T2 relaxation rates of H in D2O concentration phantom; assay type: physicochemical; conditions: FIG. 1A
Experimental: The R1 and R2 in the vertical axis are the relaxation rates of T1 and T2 relaxation, respectively.
In an experimental phantom with D2O concentration as c, respective concentrations of H2O, HDO, and D2O are (1-c)^2, 2c(1-c), and c^2, where a part of c of H is replaced by D. Population ratio of H coupled H and D coupled H is calculated as (1-c):c. The observed T1 and T2 relaxation rates are the population weighted sums of all H. Since the D coupled H has slower relaxation rates than H coupled H, we observe linear relations of R1 and R2 as changing the D2O concentration c in FIG. 1A and FIG. 1B.

[2] = amount of injected D2O less than 20% of body weight; cited from earlier work
[3] = Dynamic H MRI of rat brain after intravenous injection of contrast agent; assay type: in vivo, Sprague-Dawley rats; conditions: whole brain ROI, 1.5 mL D2O into tail vein (about 0.6% of body weight), 4.7 T
Experimental: Please refer to FIG. 2A and FIG. 2B, which are views showing consecutive MRI images and a curve of signal change. As shown in the figures, 6 normal adult Sprague-Dawley rats (˜200-310 g) are used. Each rat is anesthetized with 1.5% isoflurane/air via a nose cone with respiratory monitoring. Tail vein catheterization is performed with a 0.8-m long polyethylene tube connected to a 23-gaude needle, where a dead volume in a catheter is about 0.2 ml. On operating, 1.5 mL of D2O (99.8%, Cambridge Isotope, Woburn, Mass.) is manually injected into tail vein. After injecting, the catheter is flushed with 0.5 mL 0.9% NaCl solution. For comparison, an additional 0.2 mL Gd-DTPA (Magnevist) is manually injected into tail vein while D2O scanning is completed after 10 min. After injection, the catheter is flushed with 0.5 mL 0.9% NaCl solution. In vivo brain imaging is performed in prone position. All images are acquired on a 4.7 animal MRI scanner (Bruker Biospec 47/40). The parameters for the dynamic images are as follow: TR/TE/θ=1000 ms/30 ms/90 degree, FOV=2.9 cm, matrix size=128×128, and slice thickness=1 mm. Averaged signals from whole brain are portrayed as a signal-intensity curve. For comparison, the signal-intensity curve is transferred into a percentage change curve according to the following formula: Therein, S(t) is a signal at time t and S0 is a signal before using the contrast agent. […]

[4] = patients having kidney diseases; cited from earlier work

Row | SMILES | T1 relaxation rate (R1) of H versus D2O concentration [1] | toxicity to animals [2] | signal change [3] | nephrogenic systemic fibrosis (NSF) [4]
1 | [2H]O[2H] [D2O, deuterium oxide] | linearly decreased | not toxic | 10% | –
2 | O=C([O-])CN(CCN(CC(=O)[O-])CC(=O)O)CCN(CC(=O)[O-])CC(=O)O.[Gd+3] [Gd-DTPA] | – | – | – | possible to cause nephrogenic systemic fibrosis (NSF)
